Several values for one entry are separate records, joined by “and”; a condition that tells them apart may be missing. Equal entries are not always repeated. Where two headings read alike, the source gives them in different places.
Key:
Type in all cases: cell-based
[1] = tested on: Alternaria solani; experiment: Alternaria solani liquid culture growth inhibition; settings: for inhibition at 0.0008 ppm: read-out: Compound 1.001 inhibition (%), 0.0008 ppm; for inhibition at 0.0016 ppm: read-out: Compound 1.001 inhibition (%), 0.0016 ppm; for inhibition at 0.0031 ppm: read-out: Compound 1.001 inhibition (%), 0.0031 ppm
Experimental: (§1) Liquid Culture Tests in Well Plates
Mycelia fragments or conidia suspensions of a fungus, prepared either freshly from liquid cultures of the fungus or from cryogenic storage, were directly mixed into nutrient broth. DMSO solutions of the test compound (max. 10 mg/ml) was diluted with 0.025% Tween20 by factor 50 and 10 μl of this solution was pipetted into a microtiter plate (96-well format). […] The test plates were incubated in the dark at 24° C. and 96% rh. The inhibition of fungal growth was determined photometrically and visually after 2-4 days, depending on the pathosystem, and percent antifungal activity relative to the untreated check was calculated.
Alternaria solanil/Liquid Culture:
(§2) Conidia of the fungus from cryogenic storage were directly mixed into nutrient broth (PDB potato dextrose broth). After placing a (DMSO) solution of test compound into a microtiter plate (96-well format), the nutrient broth containing the fungal spores was added.

[2] = tested on: Botryotinia fuckeliana (Botrytis cinerea); experiment: Botryotinia fuckeliana (Botrytis cinerea) liquid culture growth inhibition; settings: for inhibition at 0.0016 ppm: read-out: Compound 1.001 inhibition (%), 0.0016 ppm; for inhibition at 0.0125 ppm: read-out: Compound 1.001 inhibition (%), 0.0125 ppm
Experimental: as §1
(§3) Mycelia fragments or conidia suspensions of a fungus, prepared either freshly from liquid cultures of the fungus or from cryogenic storage, were directly mixed into nutrient broth. DMSO solutions of the test compound (max. 10 mg/ml) was diluted with 0.025% Tween20 by factor 50 and 10 μl of this solution was pipetted into a microtiter plate (96-well format). The nutrient broth containing the fungal spores/mycelia fragments was then added to give an end concentration of the tested compound. The test plates were incubated in the dark at 24° C. and 96% rh. The inhibition of fungal growth was determined photometrically and visually after 2-4 days, depending on the pathosystem, and percent antifungal activity relative to the untreated check was calculated.
Botryotinia fuckeliana (Botrytis cinerea)/Liquid Culture:
Conidia of the fungus from cryogenic storage were directly mixed into nutrient broth (Vogels broth). After placing a (DMSO) solution of test compound into a microtiter plate (96-well format), the nutrient broth containing the fungal spores was added.

[3] = tested on: Fusarium culmorum; experiment: Fusarium culmorum liquid culture growth inhibition; settings: for inhibition at 0.025 ppm: read-out: Compound 1.001 inhibition (%), 0.0250 ppm; for inhibition at 0.05 ppm: read-out: Compound 1.001 inhibition (%), 0.0500 ppm
Experimental: as §1, §3
Fusarium culmorum/Liquid Culture:
as §2

[4] = Alternaria solani, PDB, Table 7
[5] = Alternaria solani, PDB, Table 9
[6] = Alternaria solani, PDB, Table 11
[7] = Alternaria solani, PDB, Table 13
[8] = Botrytis cinerea, Vogels Broth, Table 6
[9] = Botrytis cinerea, in Vogels Broth
[10] = Fusarium culmorum, PDB, Table 4

Which results are given for CON(C(=O)c1cn(C)nc1C(F)F)C(C)Cc1c(Cl)cc(Cl)cc1Cl (stereo not drawn) [Compound 1.001, 3-(difluoromethyl)-N-methoxy-1-methyl-N-[1-methyl-2-(2,4,6-trichlorophenyl)ethyl]pyrazole-4-carboxamide]?
Compound 1.001 inhibition (%) ([1]; 0.0016 ppm, in PDB): 74%; inhibition at 0.0004 ppm ([1]; Alternaria solani, read-out: Compound 1.001 inhibition (%), 0.0004 ppm, in PDB): 21%; inhibition at 0.0008 ppm [1, 4]: 36%; inhibition at 0.0008 ppm [1, 5]: 37%; inhibition at 0.0008 ppm [1, 6]: 42%; inhibition at 0.0008 ppm [1, 7]: 51%; inhibition at 0.0016 ppm [1, 4]: 57%; inhibition at 0.0016 ppm [1, 5]: 64%; inhibition at 0.0016 ppm [1, 6]: 68%; inhibition at 0.0016 ppm [1, 7]: 69%; inhibition at 0.0016 ppm ([1]; Alternaria solani, in PDB): 65%; inhibition at 0.0031 ppm [1, 4]: 81%; inhibition at 0.0031 ppm [1, 7]: 82%; Compound 1.001 inhibition (%) ([2]; 0.0016 ppm, in Vogels Broth): 33% and 29%; Compound 1.001 inhibition (%) ([2]; 0.0031 ppm, in Vogels Broth): 54%; Compound 1.001 inhibition (%) ([2]; 0.0063 ppm, in Vogels Broth): 62% and 38%; inhibition at 0.0004 ppm ([2]; Botrytis cinerea, read-out: Compound 1.001 inhibition (%), 0.0004 ppm, in Vogels Broth): 8%; inhibition at 0.0008 ppm ([2]; Botrytis cinerea, read-out: Compound 1.001 inhibition (%), 0.0008 ppm, in Vogels Broth): 21%; inhibition at 0.0016 ppm [2, 8]: 16%; inhibition at 0.0016 ppm [2, 9]: 26%; inhibition at 0.0031 ppm ([2]; Botrytis cinerea, read-out: Compound 1.001 inhibition (%), 0.0031 ppm, Vogels Broth, Table 6): 49%; inhibition at 0.0031 ppm ([2]; Botrytis cinerea, read-out: Compound 1.001 inhibition (%), 0.0031 ppm, in Vogels Broth): 44%; inhibition at 0.0063 ppm ([2]; Botrytis cinerea, read-out: Compound 1.001 inhibition (%), 0.0063 ppm, Vogels Broth, Table 6): 61%; inhibition at 0.0125 ppm [2, 8]: 79%; inhibition at 0.0125 ppm [2, 9]: 79%; inhibition at 0.0031 ppm ([2]; Botrytis cinerea, read-out: Compound 1.001 inhibition (%), compound 1.001 alone at 0.0031 ppm, in Vogels Broth): 40%; inhibition at 0.0063 ppm ([2]; Botrytis cinerea, read-out: Compound 1.001 inhibition (%), compound 1.001 alone at 0.0063 ppm, in Vogels Broth): 60%; Compound 1.001 inhibition (%) ([3]; 0.0250 ppm, in PDB): 27% and 34% and 29%; Compound 1.001 inhibition (%) ([3]; 0.0500 ppm, in PDB): 54% and 53%; Compound 1.001 inhibition (%) ([3]; 0.1000 ppm, in PDB): 57%; Compound 1.001 inhibition (%) ([3]; 0.2000 ppm, in PDB): 59% and 57%; inhibition at 0.0016 ppm ([3]; Fusarium culmorum, read-out: Compound 1.001 inhibition (%), 0.0016 ppm, PDB, Table 4): 7%; inhibition at 0.0031 ppm ([3]; Fusarium culmorum, read-out: Compound 1.001 inhibition (%), 0.0031 ppm, PDB, Table 4): 19%; inhibition at 0.0063 ppm ([3]; Fusarium culmorum, read-out: Compound 1.001 inhibition (%), 0.0063 ppm, PDB, Table 4): 14%; inhibition at 0.0125 ppm ([3]; Fusarium culmorum, read-out: Compound 1.001 inhibition (%), 0.0125 ppm, PDB, Table 4): 20%; inhibition at 0.025 ppm [3, 10]: 38%; inhibition at 0.025 ppm ([3]; Fusarium culmorum, in PDB): 24%; inhibition at 0.05 ppm [3, 10]: 46%; inhibition at 0.05 ppm ([3]; Fusarium culmorum, in PDB): 49%

— US9770025B2, “Fungicidal compositions” (Syngenta Participations AG, priority 2013, dated 2017)
